The source of these data is patent US20060252798A1, “Metal ion chelators and therapeutic use thereof” (priority 2003, published 2006).

One test relates to active caspase-9. The test can be described thus: Protein level of active caspase-9 in M109 cells (western blotting). The test is classed as cell-based, mouse. To be noted: 1 μM. Here is the method:
FIG. 14. Effect of Dp44mT (1 μM) on the (A,B) protein levels of active caspase-3, -8 and -9, and (C,D) the activity of caspase-3, -8 and -9 in cultured M109 cells in the absence (C) and presence (D) of cell-permeable caspase inhibitors. (A) Caspase-3, -8, and -9 levels after Dp44mT treatment at indicated times as detected by western blotting (upper panel). The anti-β-actin antibody was used to ensure equal protein loading (lower panel). (B) Densitometric analysis of the expression of caspase-3, -8, and -9 as a function of time normalized to β-actin (C) Caspase activity induced by Dp44mT (1 μM) at 0-48 h was expressed as a percentage of the 0 h time value. (D) Cell-permeable inhibitors of caspase-3, -8 or -9 at 1 μM prevented activation of these enzymes when incubated with Dp44mT (1 μM) for 48 h. Results are mean±SEM of three separate experiments.
Rabbit anti-active caspase-3 antibody, rabbit anti-active caspase-8 antibody and Annexin V fluorescein isothiocyanate (FITC) were from BD PharMingen (San Diego, Calif., USA). Anti-h-cytc MoAb was from R&D Systems Minneapolis, Minn., USA). Rabbit anti-active caspase-9 antibody, mouse anti-Bcl-2 and mouse anti-Bax antibodies were obtained from Santa Cruz (Santa Cruz, Calif., USA). Mouse anti-mouse β-actin antibody, horseradish peroxidase-conjugated antirabbit, and anti-mouse IgG were from Sigma Chemical Co. (St. Louis, Mo., USA).
To determine the role of caspase activation in Dp44mT-induced apoptosis in M109 cells, protein levels of active caspase-3, -8 and -9 (FIG. 14A,B) and their enzymatic activity (FIG. 14C,D) were examined.

The subject of the next test is M109 cells. Kind of test: Apoptosis assay by flow cytometry (Annexin V-FITC / PI), cultured M109 cells. It counts as cell-based, mouse. Here is the method:
Apoptotic cells were detected by a flow cytometer (FACSCalibur, Becton Dickinson, Calif., USA) using fluorescein isothiocyanate (FITC) labelled Annexin V binding to translocated plasma membrane phosphatidylserine (PS).^25 Propidium iodide (PI) was added to identify loss of cell membrane integrity, which is indicative of necrotic cells.
There was a dose-dependent increase in the percentage of apoptotic and dead cells after Dp44mT treatment (FIG. 13A). Exposure of cells to 1 μM Dp44mT caused a significant (p<0.05) increase of apoptotic and dead cells. This increase peaked at a Dp44mT concentration of 100 μM resulting in a population consisting of 40±7% apoptotic cells and 27±3% dead cells (FIG. 13A).

Another test deals with M109 lung carcinoma. Kind of test: In situ TUNEL assay of tumour samples from treated mice. It counts as in vivo, mouse. The conditions noted are these: 0.4 mg/kg, compared to vehicle-treated controls (FIG. 12B).
Another test deals with intracellular ROS. Kind of test: Intracellular ROS assay (DCF-DA, flow cytometry), M109 cells. It counts as cell-based, mouse. To be noted: 1 μM. On the procedure:
Intracellular ROS generation was assessed using the cell-permeable dye 2′,7′-dichlorofluorescein-diacetate (DCF-DA) (Sigma). DCF-DA readily diffuses into cells and becomes highly fluorescent when oxidised by O2^•−, H2O2, or OH^−.^29 Cellular fluorescence intensity is directly proportional to the level of intracellular ROS.^29 M109 cells (1×10^5 cells/well) were incubated with or without 1 μM Dp44mT for 0-48 h or 50 μM H2O2 (positive control) for 10 min at 37° C. The cells were then incubated with DCF-DA (5 μM) for 20 min at 37° C., washed twice, and detached from the culture plates. The fluorescence of oxidised DCF in cells was measured using flow cytometry.^29)
To test whether induction of h-cytc release from the mitochondrion (FIG. 15A) and the imbalance of Bcl-2/Bax expression (FIG. 15B) was due to the presence of ROS, intracellular ROS were measured by flow cytometry using the DCFH-DA probe which becomes fluorescent when oxidised by O2^•−, H2O2, or OH^−.^29 Incubation of M109 cells with Dp44mT (1 μM) increased the levels of oxidised probe as a function of time. After 2 h, a 25±10% increase in oxidised DCFH-DA fluorescence was found compared to the 0 h time point, and this increased to 486±96% after 48 h (FIG. 15C). For comparison, a 10 min incubation with the positive control, H2O2 (50 μM), increased fluorescence to 1312±46% of the 0 h time point (FIG. 15C)

The subject of the next test is caspase-9. The test can be described thus: Caspase-9 activity in M109 cells (BD Apolert Caspase Assay Plate). It counts as cell-based, mouse. The conditions noted are these: 1 μM. Here is the method: Cultured M109 cells were treated with or without Dp44mT (1 μM) for 0-48 h at 37° C. Cells were lysed^27 and caspase activities were determined using the BD Apolert™ Caspase Assay Plate (BD Biosciences, San Diego, Calif., USA). Cell-permeable pan-caspase-3, -8, and -9 inhibitors (BD Biosciences) were included as inhibitory controls.

Test [1] relates to iron regulatory proteins (IRPs). The test can be described thus: IRP-RNA-binding activity, gel-retardation assay, SK-N-MC cells. The test is classed as cell-based, human. To be noted: DFO 100 μM, FAC 100 μg/ml, other chelators 25 μM, 20 h (FIG. 8).
Experimental: The IRP-RNA-binding activity was then assessed by the gel-retardation assay. Aliquots of cell lysate containing 2 μg of protein were incubated with 0.1 ng (approximately 1×10^5 cpm) of ^32P-labelled riboprobe for 30 min at room temperature. Using this protocol the level of RNA added was saturating. Unprotected probe was degraded by incubation with 1 U of RNAse T1 for 10 min at room temperature. Heparin (5 mg/ml) was then added for another 10 min to exclude non-specific binding. The IRE-protein complexes were analyzed on 6% non-denaturing polyacrylamide gels. In parallel experiments, samples were treated with ferricyanide (FeCN, 5 mM) and 0.5% β-mercaptoethanol (β-ME), prior to addition of the IRE probe. This procedure results in the conversion of IRP1, whether spontaneously active or not, into an active IRE-binding form.^22
A further test concerns GADD45 and WAF1 mRNA. Kind of test: Northern blot of WAF1 and GADD45 mRNA expression in SK-N-MC cells. The conditions noted are these: DFO 100 μM, other chelators 25 μM, 20 h at 37° C. (FIG. 7). The test is classed as cell-based, human. On the procedure:
FIG. 7. […] Northern blotting was performed using standard procedures (see Example 6).
Northern blot analysis was performed by isolating total RNA using the Total RNA Isolation Reagent (Advanced Biotechnologies Ltd, Surrey, United Kingdom). The membranes were hybridised with probes specific for human WAF1, GADD45, and β-actin. The WAF1 probe consisted of a 1 kb fragment from pSXV (ATCC; Cat. No. 79928). The GADD45 probe consisted of a 760 bp fragment from human GADD45 cDNA cloned into pHu145B2 (kindly supplied by Dr. Albert Fornace, National Cancer Institute, NIH, Maryland). The β-actin probe consisted of a 1.4 kb fragment from human β-actin cDNA cloned into pBluescript SK− (ATCC; Cat. No. 37997).

As for `CN(C)C(=S)NN=C(c1ccccn1)c1ccccn1` [Dp44mT, di-2-pyridylketone 4,4-dimethyl-3-thiosemicarbazone], the caspase-9 protein level in the test with active caspase-9 (2 h) was 171 % of the control; in the test on active caspase-9 (6 h) it was 280 % of the control; with active caspase-9 (12 h) it was 280 % of the control; in the test on active caspase-9 (24 h) it was “about 4 fold that of control cells”; with active caspase-9 (48 h), “greater than 10 fold that of control cells”. For the same compound, the apoptotic cells in the test on M109 cells (1 μM, 12 h) is 12±2%; with M109 cells (100 μM, 24 h), 40±7%. This compound came in with a dead cells in the test on M109 cells (100 μM, 24 h) of 27±3%. In addition, the apoptotic cell numbers in the test on M109 cells (250 μM, 24 h) is 20±2%. Also, in the test with M109 cells (250 μM, 24 h), the dead cell population was found to be 42±6%. Further, the “apoptotic cell death in tumour samples” value with M109 lung carcinoma is “increased apoptotic cell death”. For the same compound, the “increase in oxidised DCFH-DA fluorescence compared to the 0 h time point” value with intracellular ROS (2 h) was 25±10%. In addition, the “oxidised DCFH-DA fluorescence (increased to)” value in the test on intracellular ROS (48 h) amounted to 486±96%. In the test with caspase-9 (12 h), the caspase-9 activity is listed as 354 % of the control. Further, the “caspase-9 activity (plateau)” value with caspase-9 (after 24 h) is listed as 400-600 % of the control.

Consider `CC(=O)N(O)CCCCCNC(=O)CCC(=O)N(O)CCCCCNC(=O)CCC(=O)N(O)CCCCCN` [DFO, desferrioxamine], for which, in test [1], the “IRP-RNA binding activity” value was “increase”. Moreover, the “GADD45 and WAF1 mRNA expression” value with GADD45 and WAF1 mRNA is given as “up-regulation”.
